Laboratory results taken from US6881719B2, “β-turn peptidomimetic cyclic compounds” (McGill University, priority 2000, dated 2005).
Values joined by “and” are separate entries in the source; they are usually repeats but may differ in a detail not shown here. Identical values can stand only once.

Legend:
p75 NGF receptor subunit = target: T1, p75 NGF receptor subunit (Rattus norvegicus, UniProt P07174); assay: FACScan competition of anti-p75 mAb MC192 binding on 4-3.6 cells
T1 construct: B104 rat neuroblastomas express p75 receptors; endogenous in cells
Description: (§1) The 4-3.6 cells are B104 cells stably transfected with human trkA cDNA, and express equal levels of p75 and TrkA (TrkA+ p75+). For screening agents that activate or antagonize TrkC receptors, NIH3T3 fibroblasts were stably transfected with human TrkC cDNA. These cells respond to the ligand NT-3. For screening agents that activate or antagonize TrkA receptors, NIH3T3 fibroblasts were stably transfected with human TrkA cDNA. These cells respond to the ligand NGF.
(§2) FACScan binding assays: 4-3.6 cells (2×10^5) in FACScan binding buffer (PBS, 0.5% BSA, and 0.1% NaN3) were immunostained as described (Saragovi et al., 1998). Saturating anti-TrkA mAb 5C3, or anti-p75 mAb MC192, or control non-binding IgGs were added to cells for 1 hour at 4° C., in the presence or absence of D3 as competitor. Excess primary antibody was washed off, and cells were immunostained with fluorescinated goat-anti-mouse IgG secondary antibody. Cells were acquired on a FACScan and mean channel fluorescence of bell-shaped histograms were analyzed using the LYSIS II program.

[1] = system: embryonic rat DRG primary neuronal cultures; assay: Cell survival (MTT), primary DRG cultures; type: cell-based; conditions: compound 10 μM alone; 8 days;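 on % Protection: 100% equals survival with optimal NGF at 1 nM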
Experimental: Fetal rat DRG primary cultures were established from Sprague Dawley day 17 rat embryos. All ganglia were dissected and dissociated first enzymatically with trypsin and then mechanically. Dissociated cells were cultured (10^5 cells/well) in 96 well plates pre-coated with collagen, and grown for a total of 8 days in Neuro Basal Medium containing N2 supplement (GIBCO, Toronto), antibiotics, and L-glutamine. These DRG cultures are ˜85% TrkA-expressing and are heavily dependent on TrkA signals for survival.
Primary DRG cultures: After a total of 8 days of culture with the indicated test or control ligands, cell survival were studied using the 3(4,5-Dimethylthiazolyl-2)-2,5-diphenyl tetrazolium bromide colorimetric (MTT) assay, and by microscopic observation.
(§3) Cell lines: 5,000 cells/well in protein-free media (PFHM-II, GIBCO, Toronto) containing 0.2% bovine serum albumin (BSA) (Crystalline fraction V, Sigma, St. Louis, Mo.) were seeded in 96 well plates (Falcon, Mississauga, Ontario). The cultures were untreated, or treated with the indicated test or control ligands. Cell viability was quantitated using the MTT assay after 56-72 hours of culture. […] The OD of untreated cells were subtracted. The higher optical density of untreated primary cultures is likely due to cellular heterogeneity and to endogenous production of limiting amounts of growth factors.

septal neuronal cultures = assay: ChAT activity in septal neuronal cultures; type: cell-based, rat; conditions: compound 20 μM alone; day 8
Experimental: Cell cultures were established from the septal area of 17-day-old rat embryos. In brief, tissue was incubated in PBS containing trypsin and DNase. Tissue pieces then were mechanically dissociated. After centrifugation, the pellet was suspended in Leibovitz's L-15 medium. Cells were plated onto 96-multiwell NUNC dishes (10^5 cells/well) coated with poly-D-lysine (5 μg/ml). Pure cultures of septal neurons were treated 1 day after plating. Drugs, prepared in medium, were added directly to the cells without changing the initial medium. The incubation continued for 8 days, at which time ChAT activity was evaluated.
At day 8 of culture, the medium was aspirated, and ice-cold lysis buffer (10 mM sodium phosphate, pH 7.4/0.1% TritonX-100—Trade-mark) was added. ChAT activity assays were performed directly in the wells using Fonnum's method (Fonnum, 1975).

[2] = target: T2, HEK 293 cells expressing TrkB/TrkA IgG-C2 chimeric receptor (Homo sapiens, UniProt P04629+Q16620); assay: Cell survival (MTT), HEK 293-TrkB/TrkA IgG-C2 chimera; type: cell-based; conditions: HEK 293-TrkB/TrkA chimera, 72 hours;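 on % Protection: 100% equals survival with optimal NGF at 1 nM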
T2 construct: The IgG-C2 domain of human TrkA was generated using unique restriction sites; expressed in transfected cells
Description: The IgG-C2 domain of human TrkA was generated using unique restriction sites in the primers to allow exchange with the corresponding rat TrkB domain. The chimeric receptors were constructed by subcloning the human TrkA IgG-C2 domain into the corresponding restriction sites of the rat trkB cDNA reported in a previous work (Perez et al., 1995). Chimeric constructs were confirmed by sequencing, and were cloned into the pCDNA3 expression vector that contains a selection gene providing resistance to neomycin (G418, GIBCO). HEK293 cells were transfected using the lipofectamine plus method (GIBCO), selected with neomycin (0.5 mg/ml) and at least 3 independent subclones were obtained by limiting dilution techniques (293-TrkB/A-IgC2 chimera).
as §3, with “subtracted.” for “subtracted. The higher optical density of untreated primary cultures is likely due to cellular heterogeneity and to endogenous production of limiting amounts of growth factors.”

4-3.6 cells (p75+TrkA+) = assay: Cell survival (MTT), 4-3.6 cells; type: cell-based, rat; conditions: 72 hours;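 on % Protection: 100% equals survival with optimal NGF at 1 nM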
Description: as §1, §3

cell surface TrkA = target: T3, cell surface TrkA (Homo sapiens, UniProt P04629); assay: FACScan competition of mAb 5C3 binding on 4-3.6 cells; conditions: mAb 1 nM; competitor 40 μM
T3 construct: expressed in transfected cells
Description: as §1, §2

TrkA-ECD = target: T4, TrkA-ECD (Homo sapiens, UniProt P04629); assay: ELISA competition of mAb 5C3 binding to immobilized TrkA-ECD; conditions: mAb 5C3 2 nM; competitor 40 μM
T4 construct: pure soluble TrkA extracellular domain (TrkA-ECD) produced in baculovirus; made in house
Experimental: Direct binding studies: were done as described (Saragovi et al., 1998) using 6 ng/well of recombinant baculovirus TrkA-extracellular domain protein (TrkA-ECD) or control bovine serum albumin (BSA, Fraction V, Boehringer Mannheim) immobilized onto 96-well microtest plates. Wells were blocked with binding buffer (BB: PBS with 1% BSA) for 1 hour. Then, 50 ng/well of biotinylated D3 were added as primary reagent in BB for 40 min in the absence or presence of excess non-biotinylated D3 as competitor. Wells were washed 5 times with BB, and horseradish peroxidase (HRP)-coupled avidin (Sigma) was added as secondary reagent for 30 min. Plates were washed in BB, and peroxidase activity was determined colorimetrically using 2,2-azinobis (3-ethylbenzthiazoline sulfonic acid) (ABTS, Sigma). The optical density (OD) was measured at 414 nm in a Microplate reader (Bio-Rad). Assays were repeated at least three times, n=4.
Binding Competition: studies were as described for direct binding assays to TrkA-ECD, except that as primary reagent 50 ng anti-TrkA mAb 5C3/well were added in BB, in the presence or absence of D3 or controls as competitors as described (Saragovi et al., 1998). Wells were washed 5 times with BB, and HRP-coupled goat anti-mouse was added as secondary reagent for 30 min. Plates were washed in BB, and peroxidase activity were determined. Assays were repeated at least three times, n=4.

[3] = target: T5, NIH3T3 fibroblasts expressing TrkC (Homo sapiens, UniProt Q16288); assay: Cell survival (MTT), NIH-TrkC; type: cell-based; conditions: 72 hours
T5 construct: expressed in transfected cells; host or cells: NIH3T3 fibroblasts
Description: as §1, §3

[4] = target: T6, NIH3T3 fibroblasts expressing TrkA (Homo sapiens, UniProt P04629); assay: Cell survival (MTT), NIH-TrkA; type: cell-based; conditions: 72 hours;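 further: 100% equals survival with optimal NGF at 1 nM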
T6 construct: expressed in transfected cells; host or cells: NIH3T3 fibroblasts
Description: as §1, with “These cells respond to the ligand NT-3.” left out, “cDNA.” for “cDNA. These cells respond to the ligand NGF.”
as §3, with “subtracted.” for “subtracted. The higher optical density of untreated primary cultures is likely due to cellular heterogeneity and to endogenous production of limiting amounts of growth factors.”

[5] = system: wild type NIH3T3 fibroblasts; assay: Cell survival (MTT), NIH wt; type: cell-based; conditions: 72 hours
Description: as §1, §3

T6 sequence (P04629 33-796): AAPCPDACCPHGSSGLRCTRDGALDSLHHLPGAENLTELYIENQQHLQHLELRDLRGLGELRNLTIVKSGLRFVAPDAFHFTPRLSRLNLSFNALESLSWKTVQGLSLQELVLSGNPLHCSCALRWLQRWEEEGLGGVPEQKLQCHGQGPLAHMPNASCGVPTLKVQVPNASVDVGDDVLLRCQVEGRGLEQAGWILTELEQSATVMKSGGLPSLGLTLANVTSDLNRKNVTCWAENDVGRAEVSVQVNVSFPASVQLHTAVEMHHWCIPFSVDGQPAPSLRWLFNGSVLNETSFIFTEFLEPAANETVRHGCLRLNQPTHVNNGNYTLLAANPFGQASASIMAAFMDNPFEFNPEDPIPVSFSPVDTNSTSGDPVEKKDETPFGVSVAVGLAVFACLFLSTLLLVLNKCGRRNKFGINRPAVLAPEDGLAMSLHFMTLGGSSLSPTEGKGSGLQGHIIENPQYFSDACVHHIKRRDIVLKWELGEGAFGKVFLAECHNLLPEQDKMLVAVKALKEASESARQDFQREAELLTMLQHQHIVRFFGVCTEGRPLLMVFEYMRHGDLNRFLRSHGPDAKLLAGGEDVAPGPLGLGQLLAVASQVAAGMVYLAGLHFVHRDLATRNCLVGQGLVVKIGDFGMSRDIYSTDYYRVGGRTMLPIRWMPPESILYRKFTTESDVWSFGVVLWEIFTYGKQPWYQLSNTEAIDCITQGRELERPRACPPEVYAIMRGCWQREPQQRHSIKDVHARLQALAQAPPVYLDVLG
T5 sequence (Q16288 32-839): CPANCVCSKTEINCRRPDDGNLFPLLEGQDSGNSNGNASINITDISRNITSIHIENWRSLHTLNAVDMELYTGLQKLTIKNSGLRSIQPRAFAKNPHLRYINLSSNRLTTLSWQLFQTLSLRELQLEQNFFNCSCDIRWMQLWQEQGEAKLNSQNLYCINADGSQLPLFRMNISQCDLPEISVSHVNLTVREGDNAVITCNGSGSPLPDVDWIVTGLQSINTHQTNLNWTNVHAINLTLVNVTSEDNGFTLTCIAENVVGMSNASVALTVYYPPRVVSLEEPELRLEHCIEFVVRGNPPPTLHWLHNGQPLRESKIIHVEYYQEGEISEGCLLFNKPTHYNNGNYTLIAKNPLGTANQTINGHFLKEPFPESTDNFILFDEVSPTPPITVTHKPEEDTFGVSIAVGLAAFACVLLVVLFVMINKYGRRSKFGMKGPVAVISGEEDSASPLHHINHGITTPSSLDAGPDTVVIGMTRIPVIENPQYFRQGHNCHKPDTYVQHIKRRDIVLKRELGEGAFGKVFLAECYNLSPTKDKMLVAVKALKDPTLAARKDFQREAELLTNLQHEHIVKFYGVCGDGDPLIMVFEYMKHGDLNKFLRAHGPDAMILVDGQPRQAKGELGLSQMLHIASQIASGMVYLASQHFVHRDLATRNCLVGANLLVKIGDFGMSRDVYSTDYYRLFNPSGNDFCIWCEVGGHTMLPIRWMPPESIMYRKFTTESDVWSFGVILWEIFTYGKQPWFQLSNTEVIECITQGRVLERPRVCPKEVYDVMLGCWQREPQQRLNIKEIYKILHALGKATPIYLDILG
T2 sequence (P04629 299-365 limits assumed, change not shown, one chain of several): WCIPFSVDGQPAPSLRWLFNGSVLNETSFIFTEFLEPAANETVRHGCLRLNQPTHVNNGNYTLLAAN
T1 sequence (P07174 30-425): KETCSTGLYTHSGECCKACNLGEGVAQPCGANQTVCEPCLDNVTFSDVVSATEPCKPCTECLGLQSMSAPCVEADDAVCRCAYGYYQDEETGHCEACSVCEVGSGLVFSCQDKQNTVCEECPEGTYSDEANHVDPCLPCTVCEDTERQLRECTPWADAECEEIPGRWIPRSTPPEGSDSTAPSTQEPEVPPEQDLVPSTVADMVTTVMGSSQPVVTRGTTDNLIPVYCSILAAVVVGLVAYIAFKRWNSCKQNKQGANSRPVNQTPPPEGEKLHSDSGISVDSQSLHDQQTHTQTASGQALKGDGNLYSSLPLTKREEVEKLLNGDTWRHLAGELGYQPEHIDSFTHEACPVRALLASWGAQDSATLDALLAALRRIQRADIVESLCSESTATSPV
T3 sequence (P04629 33-796): as the sequence (P04629 33-796) above
T4 sequence (P04629 33-423 limits assumed): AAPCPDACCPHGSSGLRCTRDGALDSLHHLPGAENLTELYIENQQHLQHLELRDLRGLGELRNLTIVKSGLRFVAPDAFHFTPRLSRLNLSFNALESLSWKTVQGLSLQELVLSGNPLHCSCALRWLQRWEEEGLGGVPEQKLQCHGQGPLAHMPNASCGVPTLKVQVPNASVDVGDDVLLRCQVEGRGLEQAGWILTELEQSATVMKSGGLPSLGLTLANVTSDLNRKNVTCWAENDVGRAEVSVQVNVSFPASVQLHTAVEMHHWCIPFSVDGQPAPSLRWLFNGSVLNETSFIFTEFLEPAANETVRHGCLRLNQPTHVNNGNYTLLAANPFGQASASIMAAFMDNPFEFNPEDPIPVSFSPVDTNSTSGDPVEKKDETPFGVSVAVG

SMILES	NIH-TrkC % Protection ([3]; agent 10 μM + 10 pM NT-3)	NIH-TrkC % Protection ([3]; agent 10 μM alone)	NIH-TrkA % Protection ([4]; agent 10 μM + 10 pM NGF)	NIH-TrkA % Protection ([4]; agent 10 μM + 10 pM NT-3)	NIH-TrkA % Protection ([4]; agent 10 μM alone)	NIH wt % Protection ([5]; agent 10 μM + 10 pM NT-3)	NIH wt % Protection ([5]; agent 10 μM alone)	NIH-TrkA % Protection ([4]; agent 10 μM + 1 nM NGF)	also measured
NCCCC[C@@H]1NC(=O)[C@H](CCC(=O)O)NC(=O)c2cc([N+](=O)[O-])ccc2SCC(C(N)=O)NC1=O (some centres unmarked) [C59, EKCys]	–	–	–	–	–	–	–	–	inhibition of mAb MC192 binding (p75 NGF receptor subunit): did not inhibit; % Protection [1]: 0 ± 1%; Optical Density [1]: 271 ± 8; ChAT Activity (septal neuronal cultures): 0.30 ± 0.05 pmol Ach/min/well; Fold Increase (ChAT activity) (septal neuronal cultures): 1; % Protection ([2]; compound 10 μM + 10 pM NGF): 21 ± 6%; Optical Density ([2]; compound 10 μM + 10 pM NGF): 90 ± 9; % Protection ([2]; compound 10 μM alone): −1 ± 2%; Optical Density ([2]; compound 10 μM alone): 30 ± 7; % Protection (4-3.6 cells (p75+TrkA+); compound 10 μM + 10 pM NGF): 41 ± 4%; Optical Density (4-3.6 cells (p75+TrkA+); compound 10 μM + 10 pM NGF): 209 ± 17; % Protection (4-3.6 cells (p75+TrkA+); compound 10 μM alone): 2 ± 1%; Optical Density (4-3.6 cells (p75+TrkA+); compound 10 μM alone): 76 ± 4; % Maximal binding of mAb 5C3 (cell surface TrkA): 97 ± 6%; % Binding of mAb 5C3 to TrkA-ECD (TrkA-ECD): 96 ± 9%
CCC(C)[C@@H]1NC(=O)C(CC(=O)O)NC(=O)c2cc([N+](=O)[O-])cc(I)c2OCCC(C(N)=O)NC1=O (some centres unmarked) [P23]	51 ± 7%	8 ± 2%	52 ± 3%	21 ± 3%	15 ± 2%	1 ± 3%	0 ± 3%	–	NIH-TrkC % Protection ([3]; agent 10 μM + 10 pM NGF): 11 ± 5%; NIH wt % Protection ([5]; agent 10 μM + 10 pM NGF): 1 ± 3%
CC(O)[C@@H]1NC(=O)[C@H](CCCCN)NC(=O)c2cc([N+](=O)[O-])cc(I)c2OCCC(C(N)=O)NC1=O (some centres unmarked) [P27]	62 ± 6%	13 ± 3%	–	4 ± 1%	5 ± 2%	5 ± 4%	−2 ± 4%	–	–
CC(O)[C@@H]1NC(=O)c2cc([N+](=O)[O-])cc(I)c2NCCC(C(N)=O)NC(=O)CNC1=O (some centres unmarked) [P42]	–	–	9 ± 4%	–	5 ± 2%	–	0 ± 3%	68% and 68 ± 5%	–
NC(=O)C[C@@H]1NC(=O)[C@H](CCC(=O)O)NC(=O)c2cc([N+](=O)[O-])cc(I)c2NCCC(C(N)=O)NC1=O (some centres unmarked) [P43]	–	–	12 ± 3%	–	4 ± 3%	–	2 ± 4%	55% and 55 ± 7%	–
